Data from US8933094B2, “Ethynyl compounds useful for treatment of CNS disorder” (Hoffmann-La Roche Inc., priority 2009, dated 2015).

Biological target: T1, human mGlu5a receptor (Homo sapiens, UniProt P41594)
T1 construct: expressed in transfected cells
Experiment: Intracellular Ca2+ mobilization assay (mGlu5 PAM)
Type: cell-based
Conditions: for EC50: HEK-293 cells stably transfected with human mGlu5a, L-glutamate added at EC20 after 10-30 min pre-incubation with test compound, read-out: EC50 (nM) mGlu5PAM; for Emax: maximal response in % of the maximal stimulatory effect obtained with saturating concentrations of L-glutamate, read-out: Eff. (%)
Description: A monoclonal HEK-293 cell line stably transfected with a cDNA encoding for the human mGlu5a receptor was generated; for the work with mGlu5 Positive Allosteric Modulators (PAMs), a cell line with low receptor expression levels and low constitutive receptor activity was selected to allow the differentiation of agonistic versus PAM activity. Cells were cultured according to standard protocols (Freshney, 2000) in Dulbecco's Modified Eagle Medium with high glucose supplemented with 1 mM glutamine, 10% (vol/vol) heat-inactivated bovine calf serum, Penicillin/Streptomycin, 50 μg/ml hygromycin and 15 μg/ml blasticidin (all cell culture reagents and antibiotics from Invitrogen, Basel, Switzerland).
About 24 hrs before an experiment, 5×10^4 cells/well were seeded in poly-D-lysine coated, black/clear-bottomed 96-well plates. The cells were loaded with 2.5 μM Fluo-4AM in loading buffer (1×HBSS, 20 mM HEPES) for 1 hr at 37° C. and washed five times with loading buffer. The cells were transferred into a Functional Drug Screening System 7000 (Hamamatsu, Paris, France), and 11 half logarithmic serial dilutions of test compound at 37° C. were added and the cells were incubated for 10-30 min. with on-line recording of fluorescence. Following this pre-incubation step, the agonist L-glutamate was added to the cells at a concentration corresponding to EC20 (typically around 80 μM) with on-line recording of fluorescence; in order to account for day-to-day variations in the responsiveness of cells, the EC20 of glutamate was determined immediately ahead of each experiment by recording of a full dose-response curve of glutamate.
Responses were measured as peak increase in fluorescence minus basal (i.e. fluorescence without addition of L-glutamate), normalized to the maximal stimulatory effect obtained with saturating concentrations of L-glutamate. Graphs were plotted with the % maximal stimulatory using XLfit, a curve fitting program that iteratively plots the data using Levenburg Marquardt algorithm. The single site competition analysis equation used was y=A+((B−A)/(1+((x/C)D))), where y is the % maximal stimulatory effect, A is the minimum y, B is the maximum y, C is the EC50, x is the log 10 of the concentration of the competing compound and D is the slope of the curve (the Hill Coefficient). From these curves the EC50 (concentration at which half maximal stimulation was achieved), the Hill coefficient as well as the maximal response in % of the maximal stimulatory effect obtained with saturating concentrations of L-glutamate were calculated.
A depression of the signal observed after addition of the EC20 concentration of L-glutamate was indicative of an inhibitory activity of the test compound.

T1 sequence (P41594 21-1180 isoform P41594-2 limits assumed): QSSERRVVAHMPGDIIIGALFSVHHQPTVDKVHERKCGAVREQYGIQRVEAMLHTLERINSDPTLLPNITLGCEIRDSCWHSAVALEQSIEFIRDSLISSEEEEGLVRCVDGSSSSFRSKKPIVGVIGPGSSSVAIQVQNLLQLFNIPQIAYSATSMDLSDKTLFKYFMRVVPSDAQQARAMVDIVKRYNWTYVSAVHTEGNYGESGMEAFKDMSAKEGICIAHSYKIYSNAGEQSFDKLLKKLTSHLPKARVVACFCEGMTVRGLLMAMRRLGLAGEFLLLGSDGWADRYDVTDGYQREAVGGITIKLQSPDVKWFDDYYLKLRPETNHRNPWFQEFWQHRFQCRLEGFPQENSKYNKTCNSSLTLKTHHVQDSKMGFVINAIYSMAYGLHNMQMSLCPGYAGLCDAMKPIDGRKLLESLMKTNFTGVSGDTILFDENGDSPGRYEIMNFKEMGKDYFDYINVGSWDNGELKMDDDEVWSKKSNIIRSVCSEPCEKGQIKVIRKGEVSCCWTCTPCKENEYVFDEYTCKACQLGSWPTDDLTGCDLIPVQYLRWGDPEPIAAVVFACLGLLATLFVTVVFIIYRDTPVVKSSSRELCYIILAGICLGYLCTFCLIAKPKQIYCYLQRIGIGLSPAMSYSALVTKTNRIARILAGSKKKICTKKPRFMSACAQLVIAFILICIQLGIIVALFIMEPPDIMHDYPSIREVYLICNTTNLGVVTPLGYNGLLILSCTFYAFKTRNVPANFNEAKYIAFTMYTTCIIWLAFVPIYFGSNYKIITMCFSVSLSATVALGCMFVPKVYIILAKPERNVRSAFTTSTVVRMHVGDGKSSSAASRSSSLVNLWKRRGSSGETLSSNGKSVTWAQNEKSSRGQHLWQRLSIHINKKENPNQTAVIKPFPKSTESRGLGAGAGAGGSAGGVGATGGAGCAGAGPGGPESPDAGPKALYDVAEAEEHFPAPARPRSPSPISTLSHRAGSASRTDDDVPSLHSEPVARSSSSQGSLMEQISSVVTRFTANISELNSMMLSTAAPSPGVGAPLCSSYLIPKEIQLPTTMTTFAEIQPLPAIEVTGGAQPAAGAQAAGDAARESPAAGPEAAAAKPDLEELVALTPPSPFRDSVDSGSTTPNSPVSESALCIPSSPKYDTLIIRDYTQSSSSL

SMILES | EC50 [nM] | Emax [%]
CC(C)(C)c1cc2ncc(C#Cc3ccccc3)cn2n1 [Example 9, 2-tert-Butyl-6-phenylethynyl-pyrazolo[1,5-a]pyrimidine] | 5 | 75
CC(C)(C)c1cc2ncc(C#Cc3ccc(F)c(F)c3)cn2n1 [Example 25, 2-tert-Butyl-6-(3,4-difluoro-phenylethynyl)-pyrazolo[1,5-a]pyrimidine] | 45 | 93
CC(C)(CO)c1nc2ccc(C#Cc3ccccc3)cn2n1 [Example 40, 2-Methyl-2-(6-phenylethynyl-[1,2,4]triazolo[1,5-a]pyridin-2-yl)-propan-1-ol] | 66 | 88
CC(C)(C)c1cc2ncc(C#Cc3ccc(N)cc3)cn2n1 [Example 27, 4-(2-tert-Butyl-pyrazolo[1,5-a]pyrimidin-6-ylethynyl)-phenylamine] | 41 | 99
CC(C)(C)c1nc2ncc(C#Cc3cccc(F)c3)cn2n1 [Example 44, 2-tert-Butyl-6-(3-fluoro-phenylethynyl)-[1,2,4]triazolo[1,5-a]pyrimidine] | 9 | 85
CC(C)(C)c1cc2ncc(C#Cc3cccc(F)c3)cn2n1 [Example 11, 2-tert-Butyl-6-(3-fluoro-phenylethynyl)-pyrazolo[1,5-a]pyrimidine] | 5 | 86
Cc1cccc(C#Cc2cnc3cc(C(C)(C)C)nn3c2)c1 [Example 16, 2-tert-Butyl-6-m-tolylethynyl-pyrazolo[1,5-a]pyrimidine] | 100 | 50
CC(C)(C)c1cc2ncc(C#Cc3cncnc3)cn2n1 [Example 24, 2-tert-Butyl-6-pyrimidin-5-ylethynyl-pyrazolo[1,5-a]pyrimidine] | 181 | 68
CC(C)(C)c1cc2ncc(C#Cc3cncc(F)c3)cn2n1 [Example 29, 2-tert-Butyl-6-(5-fluoro-pyridin-3-ylethynyl)-pyrazolo[1,5-a]pyrimidine] | 161 | 61
CC(C)(O)c1cc2ncc(C#Cc3ccccc3)cn2n1 [Example 28, 2-(6-Phenylethynyl-pyrazolo[1,5-a]pyrimidin-2-yl)-propan-2-ol] | 152 | 59
C(#Cc1cnc2cc(C3CCC3)nn2c1)c1ccccc1 [Example 18, 2-Cyclobutyl-6-phenylethynyl-pyrazolo[1,5-a]pyrimidine] | 182 | 102
CC(C)(C)c1nc2ncc(C#Cc3cncc(Cl)c3)cn2n1 [Example 46, 2-tert-Butyl-6-(5-chloro-pyridin-3-ylethynyl)-[1,2,4]triazolo[1,5-a]pyrimidine] | 47 | 49
Clc1cccc(C#Cc2cnc3nc(N4CCOCC4)nn3c2)c1 [Example 50, 6-(3-Chloro-phenylethynyl)-2-morpholin-4-yl-[1,2,4]triazolo[1,5-a]pyrimidine] | 39 | 88
CC(C)(C)c1cc2ncc(C#Cc3ccc(N)nc3)cn2n1 [Example 22, 5-(2-tert-Butyl-pyrazolo[1,5-a]pyrimidin-6-ylethynyl)-pyridin-2-ylamine] | 255 | 98
Cc1ccc(C#Cc2cnc3cc(C(C)(C)C)nn3c2)cc1 [Example 19, 2-tert-Butyl-6-p-tolylethynyl-pyrazolo[1,5-a]pyrimidine] | 100 | 68

Further molecules by falling EC50, results first:

EC50 [nM] | Emax [%] | SMILES
472 | 124 | C(#Cc1cnc2cc(C3CCOCC3)nn2c1)c1ccccc1 [Example 26, 6-Phenylethynyl-2-(tetrahydro-pyran-4-yl)-pyrazolo[1,5-a]pyrimidine]
310 | 63 | N#Cc1cnn2cc(C#Cc3ccccc3)cnc12 [Example 30, 6-Phenylethynyl-pyrazolo[1,5-a]pyrimidine-3-carbonitrile]
210 | 100 | C(#Cc1cnc2ncnn2c1)c1ccccc1 [Example 32, 6-Phenylethynyl-[1,2,4]triazolo[1,5-a]pyrimidine]
183 | 77 | CC(C)(C)c1cc2ncc(C#Cc3ccc(Cl)nc3)cn2n1 [Example 21, 2-tert-Butyl-6-(6-chloro-pyridin-3-ylethynyl)-pyrazolo[1,5-a]pyrimidine]
136 | 88 | C(#Cc1ccc2ccnn2c1)c1ccccc1 [Example 33, 6-Phenylethynyl-pyrazolo[1,5-a]pyridine]
132 | 73 | Cc1ccc(C#Cc2cnc3cc(C)nn3c2)cc1 [Example 7, 2-Methyl-6-p-tolylethynyl-pyrazolo[1,5-a]pyrimidine]
78 | 74 | Cc1cc2ncc(C#Cc3ccc(F)cc3)cn2n1 [Example 5, 6-(4-Fluoro-phenylethynyl)-2-methyl-pyrazolo[1,5-a]pyrimidine]
47 | 81 | Cc1cc2ncc(C#Cc3ccccc3F)cn2n1 [Example 3, 6-(2-Fluoro-phenylethynyl)-2-methyl-pyrazolo[1,5-a]pyrimidine]
42 | 77 | Cc1cc2ncc(C#Cc3cccc(F)c3)cn2n1 [Example 4, 6-(3-Fluoro-phenylethynyl)-2-methyl-pyrazolo[1,5-a]pyrimidine]
39 | 65 | CC(C)(C)c1cc2ncc(C#Cc3cc(F)ccc3F)cn2n1 [Example 37, 2-tert-Butyl-6-(2,5-difluoro-phenylethynyl)-pyrazolo[1,5-a]pyrimidine]
37 | 69 | CC(C)(C)c1cc2ncc(C#Cc3cccc(N)c3)cn2n1 [Example 35, 3-(2-tert-Butyl-pyrazolo[1,5-a]pyrimidin-6-ylethynyl)-phenylamine]
34 | 59 | CC(C)(C)c1cc2ncc(C#Cc3cncc(Cl)c3)cn2n1 [Example 23, 2-tert-Butyl-6-(5-chloro-pyridin-3-ylethynyl)-pyrazolo[1,5-a]pyrimidine]
32 | 122 | CC(C)(C)c1cc2ccc(C#Cc3ccccc3)cn2n1 [Example 41, 2-tert-Butyl-6-phenylethynyl-pyrazolo[1,5-a]pyridine]
30 | 54 | CC(C)(C)c1nc2ccc(C#Cc3ccccc3)cn2n1 [Example 39, 2-tert-Butyl-6-phenylethynyl-[1,2,4]triazolo[1,5-a]pyridine]
28 | 54 | CC(C)(C)c1nc2ncc(C#Cc3ccc(F)c(F)c3)cn2n1 [Example 45, 2-tert-Butyl-6-(3,4-difluoro-phenylethynyl)-[1,2,4]triazolo[1,5-a]pyrimidine]
19 | 80 | CC(C)(C)c1cc2ncc(C#Cc3ccccc3F)cn2n1 [Example 10, 2-tert-Butyl-6-(2-fluoro-phenylethynyl)-pyrazolo[1,5-a]pyrimidine]
14 | 37 | CC(C)(C)c1nc2ncc(C#Cc3cc(F)ccc3F)cn2n1 [Example 43, 2-tert-Butyl-6-(2,5-difluoro-phenylethynyl)-[1,2,4]triazolo[1,5-a]pyrimidine]
